Among the data in US20050197350A1, “Novel quinoline, tetrahydroquinazoline, and pyrimidine derivatives and methods of treatment related to the use thereof” (TAISHO PHARMACEUTICAL CO., LTD., priority 2003, published 2005) are IC50 values, retold here.

The assay has as its target MCH receptor (Homo sapiens, UniProt Q99705). The assay is described as follows: High throughput functional screening FLIPR/FDSS6000 (intracellular Ca2+ evoked by MCH). Format: cell-based. Particulars: FLIPR/FDSS, antagonist activity vs 50 nM MCH, class by percent of control at 10^−7 M or IC50, read-out: class. The method, boiled down: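 For antagonist testing, compound-treated cells (30 min, 37 °C) were stimulated with 50 nM MCH and intracellular Ca2+ followed by Fluo4 fluorescence on FLIPR/FDSS6000. Receptor was a constitutively active, non-endogenous MCH receptor; dye loading 4 μM Fluo4-AM, 1 h, 37 °C.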

Structures can show the parent of a compound that is named as a salt. Where two headings read alike, the source gives them in different places.

As to `Cc1cc(N(C)C)nc(N[C@H]2CC[C@@H](NC(=O)c3cccnc3S(=O)(=O)c3ccc(Br)cc3)CC2)n1` [Example 3374, 2-[(4-bromophenyl)sulfonyl]-N-(cis-4-{[4-(dimethylamino)-6-methylpyrimidin-2-yl]amino}cyclohexyl)nicotinamide], the IC50 was over 200 nM.
Turning to `CCN(CC(=O)N[C@H]1CC[C@@H](Nc2nccc(N(C)C)n2)CC1)c1ccc(Cl)cc1` [Example 3203, C-[cis-(4-Chloro-phenyl)-ethyl-amino]-N-[4-(4-dimethylamino-pyrimidin-2-ylamino)-cyclohexyl]-acetamide dihydrochloride], the IC50 (table after the classification) is under 50 nM.
The same measure, in the same setting: the result for `Cc1cc(N[C@H]2CC[C@@H](NC(=O)c3cncc(F)c3)CC2)nc2ccccc12` [Example 3397, 5-Fluoro-N-[cis-4-(4-methyl-quinolin-2-ylamino)-cyclohexyl]-nicotinamide] reads under 50 nM.
Turning to `Cc1cc(N[C@H]2CC[C@@H](NC(=O)c3ccccn3)CC2)nc2ccccc12` [Example 3181, Pyridine-2-carboxylic acid [cis-4-(4-methyl-quinolin-2-ylamino)-cyclohexyl]-amide hydrochloride], under “table after the classification”, the IC50 was in the range of 50 to 200 nM.
Regarding `CN(C)c1cc(N(C)C)nc(N[C@H]2CC[C@@H](NC(=O)c3ccc(F)c(F)c3)CC2)n1` [Example 3232, N-[cis-4-(4,6-Bis-dimethylamino-pyrimidin-2-ylamino)-cyclohexyl]-3,4-difluoro-benzamide hydrochloride], the IC50 (table after the classification) is 50 to 200 nM.
On the same count and under the same terms, the result for `COc1cccc(C(=O)N[C@H]2CC[C@@H](Nc3cc(C)c4ccccc4n3)CC2)c1` [Example 3076, 3-Methoxy-N-[cis-4-(4-methyl-quinolin-2-ylamino)-cyclohexyl]-benzamide hydrochloride] reads under 50 nM; that for `Cc1cc(N[C@H]2CC[C@@H](NC(=O)c3cccnc3Oc3ccc(F)c(F)c3)CC2)nc2ccccc12` [Example 3091, 2-(3,4-Difluoro-phenoxy)-N-[cis-4-(4-methyl-quinolin-2-ylamino)-cyclohexyl]-nicotinamide hydrochloride], under 50 nM.
Regarding `Cc1cnc(N[C@H]2CC[C@@H](NCC(=O)c3ccc(Br)cc3)CC2)nc1N(C)C` [Example 3262, 1-(4-bromophenyl)-2-[(cis-4-{[4-(dimethylamino)-5-methylpyrimidin-2-yl]amino}cyclohexyl)amino]ethanone], the IC50 was over 200 nM.
In the case of `COc1ccccc1S(=O)(=O)c1ncccc1C(=O)N[C@H]1CC[C@@H](Nc2nc(C)cc(N(C)C)n2)CC1` [Example 3378, N-(cis-4-{[4-(dimethylamino)-6-methylpyrimidin-2-yl]amino}cyclohexyl)-2-[(2-methoxyphenyl)sulfonyl]-nicotinamide], the IC50 was over 200 nM.
On to `CN(C)c1nc(N[C@H]2CC[C@@H](NC(=O)c3ccc(F)c(Cl)c3)CC2)nc2c1CCCC2` [Example 3108, 3-Chloro-N-[cis-4-(4-dimethylamino-5,6,7,8-tetrahydro-quinazolin-2-ylamino)-cyclohexyl]-4-fluoro-benzamide hydrochloride], for which the IC50 (table after the classification) was under 50 nM.
Take `COC(=O)c1cccc(C(=O)N[C@H]2CC[C@@H](Nc3cc(C)c4ccccc4n3)CC2)c1` [Example 3174, N-[cis-4-(4-Methylquinolin-2-ylamino)-cyclohexyl]-isophthalamic acid-methyl ester hydrochloride]: the IC50 (table after the classification) was under 50 nM.
Consider `COc1cccc(S(=O)(=O)c2ncccc2C(=O)N[C@H]2CC[C@@H](Nc3nc(C)cc(N(C)C)n3)CC2)c1` [Example 3379, N-(cis-4-{[4-(dimethylamino)-6-methylpyrimidin-2-yl]amino}cyclohexyl)-2-[(3-methoxyphenyl)sulfonyl]-nicotinamide], for which the IC50 is over 200 nM.
As to `CN(C)c1ccnc(N[C@H]2CC[C@@H](NC(=O)c3cc(F)cc(F)c3)CC2)n1` [Example 3205, N-[cis-4-(4-Dimethylamino-pyrimidin-2-ylamino)-cyclohexyl]-3,5-difluoro-benzamide hydrochloride], where the note is “table after the classification”, the IC50 was 50 to 200 nM.
`Cc1cc(N(C)C)nc(N[C@H]2CC[C@@H](NC(=O)N(C)C(C)(C)c3ccc(Cl)cc3)CC2)n1` [Example 3270, N-[1-(4-chiorophenyl)-1-methylethyl]-N′-(cis-4-{[4-(dimethylamino)-6-methylpyrimidin-2-yl]amino}cyclohexyl)-N-methylurea]: the IC50 lay in the range of 50 to 200 nM.
In the case of `Cc1cc(N[C@H]2CC[C@@H](NC(=O)c3cccc(Br)c3)CC2)nc2ccccc12` [Example 3086, 3-Bromo-N-[cis-4-(4-methyl-quinolin-2-ylamino)-cyclohexyl]-benzamide hydrochloride], where the note is “table after the classification”, the IC50 was under 50 nM.
As to `CN(C)c1ccnc(N[C@H]2CC[C@@H](NC(=O)c3ccc(-c4ccc(F)cc4)cc3)CC2)n1` [Example 3200, 4′-Fluoro-biphenyl-4-carboxylic acid [cis-4-(4-dimethylamino-pyrimidin-2-ylamino)-cyclohexyl]-amide hydrochloride], the IC50 (table after the classification) was over 200 nM.
With `Cc1cnc(NC2CCC(C(=O)N[C@H](C)c3ccccc3C(F)(F)F)CC2)nc1N(C)C` (stereo partly drawn) [Example 3301, 4-{[4-(dimethylamino)-5-methylpyrimidin-2-yl]amino}-N-{(1R)-1-[2-(trifluoromethyl)phenyl]ethyl}cyclohexanecarboxamide], the IC50 is over 200 nM.
Consider `Cc1cc(N[C@H]2CC[C@@H](NC(=O)c3cccnc3Oc3ccccc3)CC2)nc2ccccc12` [Example 3070, N-[cis-4-(4-Methylquinolin-2-ylamino)-cyclohexyl]-2-phenoxy-nicotinamide hydrochloride], for which, where the note is “table after the classification”, the IC50 was under 50 nM.
Still for that read-out and setting: the result for `Cc1cc(N[C@H]2CC[C@@H](NC(=O)c3ccc(C#N)cc3)CC2)nc2ccccc12` [Example 3077, 4-Cyano-N-[cis-4-(4-methyl-quinolin-2-ylamino)-cyclohexyl]-benzamide hydrochloride] reads under 50 nM.
Regarding `CN(C)c1ccnc(N[C@H]2CC[C@@H](CNC(=O)c3cccnc3Oc3ccccc3)CC2)n1` [Example 3145, N-[cis-4-(4-Dimethylamino-pyrimidin-2-ylamino)-cyclohexylmethyl]-2-phenoxy-nicotinamide hydrochloride], under “table after the classification”, the IC50 was over 200 nM.
Same read-out and setting: the result for `Cc1cccc(C(=O)N[C@H]2CC[C@@H](Nc3cc(C)c4ccccc4n3)CC2)c1` [Example 3075, 3-Methyl-N-[cis-4-(4-methyl-quinolin-2-ylamino)-cyclohexyl]-benzamide hydrochloride] reads under 50 nM; that for `Cc1cc(N[C@H]2CC[C@@H](NC(=O)c3cccc(Cl)c3)CC2)nc2ccccc12` [Example 3073, 3-Chloro-N-[cis-4-(4-methyl-quinolin-2-ylamino)-cyclohexyl]-benzamide hydrochloride], under 50 nM.
`Cc1cc(C)nc(N[C@H]2CC[C@@H](NC(=O)c3cccnc3Oc3ccccc3)CC2)n1` [Example 3143, N-[cis-4-(4,6-Dimethyl-pyrimidin-2-ylamino)-cyclohexyl]-2-phenoxy-nicotinamide hydrochloride]: the IC50 (table after the classification) was over 200 nM.
Take `Cc1cnc(N[C@H]2CC[C@@H](NC(=O)c3cccnc3S(=O)(=O)c3cccc(Cl)c3)CC2)nc1N(C)C` [Example 3283, 2-[(3-chlorophenyl)sulfonyl]-N-(cis-4-{[4-(dimethylamino)-5-methylpyrimidin-2-yl]amino}cyclohexyl)nicotinamide]: the IC50 lay in the range of 50 to 200 nM.
For the compound `CN(C)c1ccnc(N[C@H]2CC[C@@H](NC(=O)c3ccncc3)CC2)n1` [Example 3210, N-[cis-4-(4-Dimethylamino-pyrimidin-2-ylamino)-cyclohexyl]-isonicotinamide dihydrochloride], the IC50 (table after the classification) was over 200 nM.
Turning to `Cc1cc(N[C@H]2CC[C@@H](NC(=O)c3cc([N+](=O)[O-])cn3C)CC2)nc2ccccc12` [Example 3081, 1-Methyl-4-nitro-1H-pyrrole-2-carboxylic acid-[cis-4-(4-methyl-quinolin-2-ylamino)-cyclohexyl]-amide hydrochloride], the IC50 (table after the classification) was under 50 nM.
As for `Cc1cnc(N[C@H]2CC[C@@H](NC(=O)c3cccnc3S(=O)(=O)c3cccc(Br)c3)CC2)nc1N(C)C` [Example 3285, 2-[(3-bromophenyl)sulfonyl]-N-(cis-4-{[4-(dimethylamino)-5-methylpyrimidin-2-yl]amino}cyclohexyl)nicotinamide], the IC50 fell in the range of 50 to 200 nM.
Still for that read-out and setting: the result for `Cc1cnc(N[C@H]2CC[C@@H](NC(=O)c3cccnc3S(=O)(=O)c3ccoc3C)CC2)nc1N(C)C` [Example 3290, N-(cis-4-{[4-(dimethylamino)-5-methylpyrimidin-2-yl]amino}cyclohexyl)-2-[(2-methyl-3-furyl)sulfonyl]nicotinamide] reads over 200 nM.
With `Cc1cc(N[C@H]2CC[C@@H](NC(=O)Nc3cccc(Cl)c3Cl)CC2)nc2ccccc12` [Example 3072, 1-(2,3-Dichloro-phenyl)-3-[cis-4-(4-methyl-quinolin-2-ylamino)-cyclohexyl]-urea hydrochloride], the IC50 (table after the classification) was under 50 nM.
Turning to `Cc1cnc(N[C@H]2CC[C@@H](NC(=O)NC3(c4ccc(Cl)cc4)CC3)CC2)nc1N(C)C` [Example 3266, N-[1-(4-chlorophenyl)cyclopropyl]-N′-(cis-4-{[4-(dimethylamino)-5-methylpyrimidin-2-yl]amino}cyclohexyl)urea], the IC50 was under 50 nM.
`Cc1cc(N[C@H]2CC[C@@H](NC(=O)c3cccc(F)c3)CC2)nc2ccccc12` [Example 3170, 3-Fluoro-N-[cis-4-(4-methyl-quinolin-2-ylamino)-cyclohexyl]-benzamide hydrochloride]: the IC50 (table after the classification) is under 50 nM.
As to `Cc1cc(N(C)C)nc(N[C@H]2CC[C@@H](NC(=O)N(C)C(C)(C)c3cc(C(F)(F)F)cc(C(F)(F)F)c3)CC2)n1` [Example 3268, N-{1-[3,5-bis(trifluoromethyl)phenyl]-1-methylethyl}-N′-(cis-4-{[4-(dimethylamino)-6-methylpyrimidin-2-yl]amino}cyclohexyl)-N-methylurea], the IC50 was over 200 nM.
